{
  "source": "ChEMBL document CHEMBL3045720",
  "about": "“Synthesis and antifungal activity of 2-chloromethyl-1H-benzimidazole derivatives against phytopathogenic fungi in vitro” (J Agric Food Chem, 2013)",
  "key": {"[1]": {"tested_on": "Fusarium solani", "assay": "Antifungal activity against Fusarium solani assessed as inhibition of mycelium growth after 1 week", "assay_type": "functional, organism-based"}, "[2]": {"tested_on": "Alternaria solani", "assay": "Antifungal activity against Alternaria solani assessed as inhibition of mycelium growth after 1 week", "assay_type": "functional, organism-based"}, "[3]": {"tested_on": "Botrytis cinerea", "assay": "Antifungal activity against Botryotinia fuckeliana assessed as inhibition of mycelium growth after 1 week", "assay_type": "functional, organism-based", "conditions": "168 h; call rule not given here"}, "[4]": {"tested_on": "Colletotrichum gloeosporioides", "assay": "Antifungal activity against Colletotrichum gloeosporioides assessed as inhibition of mycelium growth […]", "assay_type": "functional, organism-based"}, "[5]": {"tested_on": "Cytospora", "assay": "Antifungal activity against Cytospora sp. assessed as […]", "assay_type": "functional, organism-based"}, "[6]": {"tested_on": "Fusarium solani", "assay": "Antifungal activity against Fusarium solani assessed as inhibition of mycelium growth at 100 ug/ml […]", "assay_type": "functional", "conditions": "168 h, read-out: GI"}, "[7]": {"tested_on": "Botrytis cinerea", "assay": "Antifungal activity against Botryotinia fuckeliana assessed as inhibition of mycelium growth at 100 ug/ml […]", "assay_type": "functional", "conditions": "168 h, read-out: GI"}, "[8]": {"tested_on": "Alternaria solani", "assay": "Antifungal activity against Alternaria solani assessed as inhibition of mycelium growth at 100 ug/ml […]", "assay_type": "functional", "conditions": "168 h, read-out: GI"}, "[9]": {"tested_on": "Cytospora", "assay": "Antifungal activity against Cytospora sp. assessed as inhibition of mycelium growth at 100 ug/ml after 3 to 4 days", "conditions": "72 to 96 h, read-out: GI"}, "[10]": {"tested_on": "Colletotrichum gloeosporioides", "assay": "Antifungal activity against Colletotrichum gloeosporioides assessed as inhibition of mycelium growth at 100 ug/ml after 3 to 4 days", "conditions": "72 to 96 h, read-out: GI"}, "[11]": {"conditions": "Fusarium solani, 168 h, read-out: IC50"}, "[12]": {"conditions": "Alternaria solani, 168 h, read-out: IC50"}, "[13]": {"conditions": "Colletotrichum gloeosporioides, read-out: IC50"}, "[14]": {"conditions": "Cytospora, 168 h, read-out: IC50"}},
  "data": [
    {"smiles": "Cn1c(COc2ccc(Cl)cc2)nc2cc([N+](=O)[O-])ccc21", "values": [
      {"measurement": "IC50", "setting": "[1]", "value": "Not Active"},
      {"measurement": "IC50", "setting": "[2]", "value": "Not Active"},
      {"measurement": "IC50", "setting": "[3]", "value": 13.4, "unit": "µg/mL"},
      {"measurement": "IC50", "setting": "[4]", "value": "Not Active"},
      {"measurement": "IC50", "setting": "[5]", "value": "Not Active"},
      {"measurement": "inhibition of growth at 100 µg/mL", "setting": "[6]", "value": "< 5", "unit": "%"},
      {"measurement": "inhibition of growth at 100 µg/mL", "setting": "[7]", "value": 100, "unit": "%"},
      {"measurement": "inhibition of growth at 100 µg/mL", "setting": "[8]", "value": 30.2, "unit": "%"},
      {"measurement": "inhibition of growth at 100 µg/mL", "setting": "[9]", "value": 10.2, "unit": "%"},
      {"measurement": "inhibition of growth at 100 µg/mL", "setting": "[10]", "value": 6.35, "unit": "%"}
    ]},
    {"smiles": "Cn1c(COc2ccccc2)nc2ccccc21", "values": [
      {"measurement": "IC50", "setting": "[1]; [11]", "value": 18.6, "unit": "µg/mL"},
      {"measurement": "IC50", "setting": "[2]; [12]", "value": 27.6, "unit": "µg/mL"},
      {"measurement": "IC50", "setting": "[3]", "value": "> 150", "unit": "µg/mL"},
      {"measurement": "IC50", "setting": "[4]; [13]", "value": 20.8, "unit": "µg/mL"},
      {"measurement": "IC50", "setting": "[5]; [14]", "value": 50, "unit": "µg/mL"},
      {"measurement": "inhibition of growth at 100 µg/mL", "setting": "[6]", "value": 84.5, "unit": "%"},
      {"measurement": "inhibition of growth at 100 µg/mL", "setting": "[7]", "value": 29.8, "unit": "%"},
      {"measurement": "inhibition of growth at 100 µg/mL", "setting": "[8]", "value": 75.4, "unit": "%"},
      {"measurement": "inhibition of growth at 100 µg/mL", "setting": "[9]", "value": 84.2, "unit": "%"},
      {"measurement": "inhibition of growth at 100 µg/mL", "setting": "[10]", "value": 87.3, "unit": "%"}
    ]},
    {"smiles": "Cc1cc(O)no1", "note": "[HYMEXAZOL]", "values": [
      {"measurement": "IC50", "setting": "[1]; [11]", "value": 38.5, "unit": "µg/mL"},
      {"measurement": "IC50", "setting": "[2]; [12]", "value": 14, "unit": "µg/mL"},
      {"measurement": "IC50", "setting": "[3]", "value": 8.92, "unit": "µg/mL"},
      {"measurement": "IC50", "setting": "[4]; [13]", "value": "> 100", "unit": "µg/mL"},
      {"measurement": "IC50", "setting": "[5]; [14]", "value": "> 100", "unit": "µg/mL"},
      {"measurement": "inhibition of growth at 100 µg/mL", "setting": "[6]", "value": 72.5, "unit": "%"},
      {"measurement": "inhibition of growth at 100 µg/mL", "setting": "[7]", "value": 100, "unit": "%"},
      {"measurement": "inhibition of growth at 100 µg/mL", "setting": "[8]", "value": 80.3, "unit": "%"},
      {"measurement": "inhibition of growth at 100 µg/mL", "setting": "[9]", "value": 38.9, "unit": "%"},
      {"measurement": "inhibition of growth at 100 µg/mL", "setting": "[10]", "value": 49.2, "unit": "%"}
    ]},
    {"smiles": "ClCc1nc2ccccc2[nH]1", "values": [
      {"measurement": "IC50", "setting": "[1]", "value": "Not Active"},
      {"measurement": "IC50", "setting": "[2]; [12]", "value": "> 100", "unit": "µg/mL"},
      {"measurement": "IC50", "setting": "[3]", "value": "> 100", "unit": "µg/mL"},
      {"measurement": "IC50", "setting": "[4]; [13]", "value": 83.1, "unit": "µg/mL"},
      {"measurement": "IC50", "setting": "[5]", "value": "Not Active"},
      {"measurement": "inhibition of growth at 100 µg/mL", "setting": "[6]", "value": 6.59, "unit": "%"},
      {"measurement": "inhibition of growth at 100 µg/mL", "setting": "[7]", "value": 53.2, "unit": "%"},
      {"measurement": "inhibition of growth at 100 µg/mL", "setting": "[8]", "value": 25.3, "unit": "%"},
      {"measurement": "inhibition of growth at 100 µg/mL", "setting": "[9]", "value": "< 5", "unit": "%"},
      {"measurement": "inhibition of growth at 100 µg/mL", "setting": "[10]", "value": 67.6, "unit": "%"}
    ]},
    {"smiles": "CC(=O)c1ccc(OCc2nc3ccccc3n2C)cc1", "values": [
      {"measurement": "IC50", "setting": "[1]; [11]", "value": 39, "unit": "µg/mL"},
      {"measurement": "IC50", "setting": "[2]; [12]", "value": "> 100", "unit": "µg/mL"},
      {"measurement": "IC50", "setting": "[3]", "value": 89.6, "unit": "µg/mL"},
      {"measurement": "IC50", "setting": "[4]; [13]", "value": "> 120", "unit": "µg/mL"},
      {"measurement": "IC50", "setting": "[5]; [14]", "value": 50.7, "unit": "µg/mL"},
      {"measurement": "inhibition of growth at 100 µg/mL", "setting": "[6]", "value": 81.8, "unit": "%"},
      {"measurement": "inhibition of growth at 100 µg/mL", "setting": "[7]", "value": 65.4, "unit": "%"},
      {"measurement": "inhibition of growth at 100 µg/mL", "setting": "[8]", "value": 55.7, "unit": "%"},
      {"measurement": "inhibition of growth at 100 µg/mL", "setting": "[9]", "value": 87.1, "unit": "%"},
      {"measurement": "inhibition of growth at 100 µg/mL", "setting": "[10]", "value": 38.1, "unit": "%"}
    ]},
    {"smiles": "Cn1c(COc2ccc3c(c2)OCO3)nc2cc([N+](=O)[O-])ccc21", "values": [
      {"measurement": "IC50", "setting": "[1]", "value": "Not Active"},
      {"measurement": "IC50", "setting": "[2]", "value": "Not Active"},
      {"measurement": "IC50", "setting": "[3]", "value": 69.1, "unit": "µg/mL"},
      {"measurement": "IC50", "setting": "[4]", "value": "Not Active"},
      {"measurement": "IC50", "setting": "[5]", "value": "Not Active"},
      {"measurement": "inhibition of growth at 100 µg/mL", "setting": "[6]", "value": 34.8, "unit": "%"},
      {"measurement": "inhibition of growth at 100 µg/mL", "setting": "[7]", "value": 91.2, "unit": "%"},
      {"measurement": "inhibition of growth at 100 µg/mL", "setting": "[8]", "value": 7.22, "unit": "%"},
      {"measurement": "inhibition of growth at 100 µg/mL", "setting": "[9]", "value": 12.4, "unit": "%"},
      {"measurement": "inhibition of growth at 100 µg/mL", "setting": "[10]", "value": "< 5", "unit": "%"}
    ]}
  ]
}
